# Laboratory results from patent US7772271B2 (priority 2004, dated 2010).
row,Compound,melting point
1,CCCS(=O)(=O)Nc1ccc(-c2c(C#N)c3ccc(Oc4ncccc4C#N)cc3n2C2CCC2)cc1C [Compound 3290],176 to 180 °C
2,N#Cc1c(-c2ccc(NCC(F)F)cc2)n(C2CCC2)c2ccc(OCC(F)F)cc12 [Compound 3292],159 to 161 °C
3,N#Cc1nccnc1Oc1ccc2c(C#N)c(-c3ccc(NS(=O)(=O)C4CCC4)cc3)n(CC3CC3)c2c1 [Compound 3295],236 to 238 °C
4,CCCS(=O)(=O)Nc1ccc(-c2c(C#N)c3ccc(OCCCN4C(=O)CCC4=O)cc3n2C2CCC2)cc1 [Compound 3296],215 to 216 °C
5,CCCS(=O)(=O)Nc1ccc(-c2c(C#N)c3ccc(OCCCN4C(=O)CN(C)C4=O)cc3n2C2CCC2)cc1 [Compound 3299],178 to 179 °C
6,CN(C)/C=N/c1ccc(-c2c(C#N)c3ccc(Oc4ncccn4)cc3n2C2CCC2)cc1Cl [Compound 3300],215 to 216 °C
7,CCCS(=O)(=O)Nc1ccc(-c2c(C#N)c3ccc(Oc4cnccc4C#N)cc3n2CC2CC2)c(C)c1 [Compound 3303],138 to 142 °C
8,CCCS(=O)(=O)Nc1ccc(-c2c(C#N)c3ccc(Oc4ncccc4C#N)cc3n2C2CC2)c(C)c1 [Compound 3304],222 to 226 °C
9,CCCS(=O)(=O)Nc1ccc(-c2c(C#N)c3ccc(Oc4nccnc4C#N)cc3n2C2CC2)c(C)c1 [Compound 3305],225 to 228 °C
10,CCCS(=O)(=O)Nc1ccc(-c2c(C#N)c3ccc(Oc4ncccc4C#N)cc3n2CC2CC2)c(Cl)c1 [Compound 3306],218 to 220 °C
11,CCCS(=O)(=O)Nc1ccc(-c2c(C#N)c3ccc(Oc4nccnc4C#N)cc3n2CC2CC2)c(Cl)c1 [Compound 3307],243 to 246 °C
12,CCCS(=O)(=O)Nc1ccc(-c2c(C#N)c3ccc(Oc4ncccc4C(=O)OCC)cc3n2C2CCC2)cc1 [Compound 3308],138 to 142 °C
13,CCCS(=O)(=O)Nc1ccc(-c2c(C#N)c3ccc(Oc4nc(C)ccc4C#N)cc3n2C2CCC2)cc1 [Compound 3309],219 to 221 °C
14,CCCS(=O)(=O)Nc1ccc(-c2c(C#N)c3ccc(Oc4ncccc4C(C)=O)cc3n2C2CCC2)cc1 [Compound 3311],191 to 194 °C
15,CC(C)Nc1ccc(-c2c(C#N)c3ccc(Oc4ncccn4)cc3n2C2CCC2)cn1 [Compound 3312],206 to 208 °C
16,N#Cc1c(-c2ccc(NC3CC3)nc2)n(C2CCC2)c2cc(Oc3ncccn3)ccc12 [Compound 3313],244 to 246 °C
17,C[C@H](NS(=O)(=O)Nc1ccc(-c2c(C#N)c3ccc(N4CCOCC4)cc3n2C2CCC2)cc1)C1CC1 [Compound 3314],198 to 199 °C
18,C[C@@H](OC(=O)Nc1ccc(-c2c(C#N)c3ccc(-n4ccccc4=O)cc3n2C2CCC2)cc1)C1CC1 [Compound 3315],237 to 238 °C
19,C[C@@H](OC(=O)Nc1ccc(-c2c(C#N)c3ccc(-n4ccccc4=O)cc3n2C2CCC2)cc1)C(F)(F)F [Compound 3316],244 to 245 °C
20,Cc1noc(C)c1-c1ccc2c(C#N)c(-c3ccc(NC(=O)O[C@H](C)C4CC4)cc3)n(C3CCC3)c2c1 [Compound 3317],225 °C (dec.)
21,C[C@@H](OC(=O)Nc1ccc(-c2c(C#N)c3ccc(N4CCS4(=O)=O)cc3n2C2CCC2)cc1)C1CC1 [Compound 3318],235 °C (dec.)
22,C[C@@H](OC(=O)Nc1ccc(-c2c(C#N)c3ccc(Oc4ncccn4)cc3n2C2CCC2)cn1)C(F)(F)F [Compound 3322],227 to 229 °C
23,CC(C)NC(=O)Nc1ccc(-c2c(C#N)c3ccc(Oc4ncccn4)cc3n2C2CCC2)cc1C#N [Compound 3325],173 to 181 °C
24,O=S1(=O)CCCN1c1ccc(-c2cc3ccc(Oc4ncccn4)cc3n2CC2CC2)cc1 [Compound 3326],98 to 99 °C

# Other lines, results leading:
row,melting point,Compound
1,213 to 215 °C,CC(C)Nc1ncc(-c2c(C#N)c3ccc(Oc4ncccn4)cc3n2C2CCC2)cn1 [Compound 3327]
2,227 to 229 °C,N#Cc1c(-c2cnc(NC3CC3)nc2)n(C2CCC2)c2cc(Oc3ncccn3)ccc12 [Compound 3328]
3,237 to 238 °C,N#Cc1c(-c2cnc(NC3CCC3)nc2)n(C2CCC2)c2cc(Oc3ncccn3)ccc12 [Compound 3329]
4,230 to 231 °C,N#Cc1c(-c2cnc(NC3CCCC3)nc2)n(C2CCC2)c2cc(Oc3ncccn3)ccc12 [Compound 3330]
5,217 to 218 °C,N#Cc1c(-c2cnc(NC3CCCCC3)nc2)n(C2CCC2)c2cc(Oc3ncccn3)ccc12 [Compound 3331]
6,140 °C (dec.),C[C@@H](OC(=O)Nc1ccc(-c2c(C#N)c3ccc(N4CCCC4=O)cc3n2C2CCC2)cc1)C1CC1 [Compound 3332]
7,108 to 115 °C,Cc1cc(NC(=O)O[C@H](C)C2CC2)ccc1-c1c(C#N)c2ccc(Oc3ncccc3C#N)cc2n1C1CCC1 [Compound 3333]
8,108 to 116 °C,Cc1cc(NC(=O)O[C@H](C)C2CC2)ccc1-c1c(C#N)c2ccc(Oc3nccnc3C#N)cc2n1C1CCC1 [Compound 3334]
9,227 to 230 °C,CCCS(=O)(=O)Nc1cc(C)c(-c2c(C#N)c3ccc(Oc4ncccc4C#N)cc3n2C2CCC2)cc1C [Compound 3335]
10,257 to 259 °C,CCCS(=O)(=O)Nc1cc(C)c(-c2c(C#N)c3ccc(Oc4nccnc4C#N)cc3n2C2CCC2)cc1C [Compound 3336]
11,280 to 281 °C,Cc1cccn(-c2ccc3c(C#N)c(-c4ccc(NC(=O)O[C@H](C)C5CC5)cc4)n(C4CCC4)c3c2)c1=O [Compound 3338]
12,284 to 285 °C,Cc1cccn(-c2ccc3c(C#N)c(-c4ccc(NC(=O)OC(C)C)cc4)n(C4CCC4)c3c2)c1=O [Compound 3339]
13,290 to 291 °C,Cc1cccn(-c2ccc3c(C#N)c(-c4ccc(NS(=O)(=O)CC(C)C)cc4)n(C4CCC4)c3c2)c1=O [Compound 3340]
14,265 to 266 °C,Cc1cccn(-c2ccc3c(C#N)c(-c4ccc(NC(=O)O[C@H](C)C(F)(F)F)cc4)n(C4CCC4)c3c2)c1=O [Compound 3341]
15,266 to 267.5 °C,Cc1cccn(-c2ccc3c(C#N)c(-c4ccc(NC(=O)NC(C)C)cc4)n(C4CCC4)c3c2)c1=O [Compound 3342]
16,227 to 230 °C,CCCS(=O)(=O)Nc1ccc(-c2c(C#N)c3ccc(Oc4ncccc4C#N)cc3n2C2CCC2)c(OC)c1 [Compound 3344]

row,melting point,Compound
1,113 to 116 °C,CCCS(=O)(=O)Nc1ccc(-c2c(C#N)c3ccc(Oc4ncccc4C#N)cc3n2C2CCC2)c(F)c1 [Compound 3346]
2,229 to 231 °C,N#Cc1c(-c2ccc(NC3CCC3)nc2)n(C2CCC2)c2cc(Oc3ncccn3)ccc12 [Compound 3348]
3,148 to 151 °C,"CCn1c(-c2ccc3c(ccn3S(C)(=O)=O)c2)c(C#N)c2ccc(OC)cc21 [compound 1330, 1-ethyl-1′-methanesulfonyl-6-methoxy-1H,1′H-[2,5′]biindolyl-3-carbonitrile]"
4,157 to 160 °C,CCn1c(-c2ccc3c(ccn3S(=O)(=O)CC)c2)c(C#N)c2ccc(OC)cc21 [compound 1331]
5,87 to 88 °C,"CS(=O)(=O)Nc1ccc(-c2c(C#N)c3ccc(OC(F)F)cc3n2CC2CCCO2)cc1 (stereo not shown) [compound 1334, N-{4-[3-cyano-6-difluoromethoxy-1-(tetrahydro-furan-2-ylmethyl)-1H-indole-2-yl]-phenyl}-methanesulfonamide]"
6,183 to 184 °C,"CCOc1ccc(-c2c(C#N)c3ccc(N4CCN(C(=O)OC(C)(C)C)CC4)cc3n2CC)cc1 [compound 1337, 4-[3-cyano-2-(4-ethoxyphenyl)-1-ethylindol-6-yl]piperazine-1-carboxylic acid tert-butyl ester]"
7,177 to 178 °C,CCOC(=O)Nc1ccc(-c2c(C#N)c3ccc(N4CCN(C)CC4)cc3n2CC)cc1 [compound 1339]
8,170 to 171 °C,"CCC(=O)Nc1ccc(-c2c(C#N)c3ccc(N4CCN(C)CC4)cc3n2CC)cc1 [compound 1341, N-{4-[3-cyano-1-ethyl-6-(4-methylpiperazin-1-yl)-indol-2-yl]phenyl}propionamide]"
9,155 to 158 °C,"CCN(CC)c1nc2ccc(-c3c(C#N)c4ccc(OC)cc4n3CC)cc2s1 [compound 1343, 2-(2-Diethylaminobenzothiazol-6-yl)-1-ethyl-6-methoxy-1H-indole-3-carbonitrile]"
10,226 to 228 °C,"CCOc1ccc2c(C#N)c(-c3ccc(N4CCCOC4=O)cc3)n(C3CCC3)c2c1 [compound 1346, 1-cyclobutyl-6-ethoxy-2-[4-(2-oxo-[1,3]oxazinan-3-yl)-phenyl]-1H-indole-3-carbonitrile]"
11,170 to 171 °C,"CCOC(=O)Nc1ccc(-c2c(C#N)c3ccc(OCCOC)cc3n2C2CCC2)cc1 [compound 1397, {4-[3-cyano-1-cyclobutyl-6-(2-methoxy-ethoxy)-1H-indole-2-yl]-phenyl}-carbamic acid ethyl ester]"
12,199 to 203 °C,"CCOc1ccc2c(C#N)c(-c3ccc(NC(=O)NCCO)cc3)n(C3CCC3)c2c1 [compound 1408, 1-[4-(3-cyano-1-cyclobutyl-6-ethoxy-1H-indol-2-yl)-phenyl]-3-(2-hydroxy-ethyl)-urea]"
13,209 to 215 °C,"CC(C)OC(=O)Nc1ccc(-c2c(C#N)c3ccc(OCC(O)Cn4cncn4)cc3n2C2CCC2)cc1 (stereo not shown) [compound 1420, {4-[3-Cyano-1-cyclobutyl-6-(2-hydroxy-3-[1,2,4]triazol-1-yl-propoxy)-1H-indol-2-yl]-phenyl}-carbamic acid isopropyl ester]"
14,192 to 193 °C,"COCCOc1ccc2c(C#N)c(-c3ccc(NC(=O)OC(C)C4CC4)cc3)n(C3CCC3)c2c1 (stereo not shown) [compound 1423, [4-(3-cyano-1-cyclobutyl-6-(2-methoxyethoxy)-1H-indol-2-yl)-phenyl]-carbamic acid 1-cyclopropyl-ethyl ester]"
15,65 to 72 °C,"CCOc1ccc2c(C#N)c(-c3ccc(NC(=O)OCCOCCOC)cc3)n(C3CCC3)c2c1 [compound 1424, [4-(3-cyano-1-cyclobutyl-6-ethoxy-1H-indol-2-yl)-phenyl]-carbamic acid 2-(2-methoxyethoxy)-ethyl ester]"
